The term logD denotes the decadic logarithm of the distribution of all forms, ionised or not, between an organic phase and buffer at a given pH. For orientation: IC50 means the concentration that gives 50% inhibition. A higher IC50 goes with weaker potency. By melting point is commonly meant the temperature, or range, at which the solid turns liquid. One may read the Km as the concentration of substrate that gives half-maximal velocity. For orientation: kcat means the maximal rate divided by the concentration of active sites.

SMILES strings stand for the structures.

A short description of data set [1]: LogD7.4 by low-volume octanol/PBS shake-flask method. Format: physicochemical. As to conditions: n-octanol/PBS; octanol-water partition coefficient, shake-flask method at pH 7.4. As for the experimental part:
Distribution ratios (LogD7.4) were determined by a low-volume octanol/PBS shake-flask method. Briefly, saturated solutions of octanol and PBS were prepared by mixing equal volumes of n-octanol and PBS (pH 7.4) before being left for three days. The octanol and PBS phases were then carefully separated and left to stand for at least 24 h. Stock solutions (0.1–0.5 mM) of each compound were prepared in octanol saturated with PBS. The stock solutions were diluted with octanol saturated with PBS containing and inter-assay control (acridone) to a final compound concentration of 50 μM. Aliquots (450 μL) were then taken in triplicate, and 450 μL of PBS saturated with octanol was added into amber tubes. The tubes were then sealed in parafilm and rotated for 90 min at 30 rpm to equilibrate. After centrifugation (15,000× g, 5 min, 20°C) the octanol and PBS phases were separated into different tubes and the octanol phase diluted with methanol (1:5 v/v). Both phases were analyzed by HPLC (diode-array detector at 364 ± 10 nm) by injecting 50 μL of the PBS phase and 15 μL of the diluted octanol phase. The results were then expressed as the log ratio of the peak areas obtained from the octanol and PBS phases corrected for dilution and injection volume.

The next data set relates to 100% HCT116 AKR1C3 MCLs. The data set can be described thus: 3D multicellular layer (MCL) assay, 100% HCT116 AKR1C3. It counts as cell-based, human. As to conditions: 10 µM prodrug, five hours. As for the experimental part:
Similar to the 3D NfsA_Ec screen, increased lipophilicity also tracked with increased LCK in 100% AKR1C3-expressing MCLs (R = 0.78, R^2 = 0.61). […] These three lead compounds were taken forward into in vivo studies.
(§1) Multicellular layers (MCLs) were grown, and bystander effect assays were performed as previously reported.
Figure 4 Lipophilic structure–activity relationship for AKR1C3 in three dimensions. (A) Plating efficiency in 100% HCT116 WT and 100% HCT116 AKR1C3 MCLs exposed to 10 µM prodrug for five hours before dissociation and plating to determine clonogenic survival. (B) Correlation between Log cell kill and LogD7.4. R = 0.78, R^2 = 0.61. Log cell kill = Log CS (control)–Log CS (treated), where CS is the number of clonogenic survivors per MCL.

In a further data set the test system is H1299 WT cells. Kind of data set: Anti-proliferative IC50 assay, H1299 WT cells. Format: cell-based. The following applies: Homo sapiens, NCI-H1299, 4 hour drug exposure, regrowth for five days. As for the experimental part: (§2) The anti-proliferative IC50 was determined as the concentration of prodrug required for 50% inhibition of cell growth, following drug exposure for four hours, then five days regrowth in the absence of drug. Assays were performed under oxic or anoxic conditions as described previously, the latter by using a 5% H2/palladium catalyst scrubbed Bactron anaerobic chamber (Sheldon Manufacturing, Cornelius, OR, USA) to achieve severe anoxia (<10 ppm O2 gas phase) during prodrug exposure.
(§3) Supplementary Table S2. In vitro anti-proliferative activity of the three lead prodrug compounds in H1299 cells expressing E. coli NfsA. IC50 values were determined as the concentration of drug required to inhibit cell growth by 50% of untreated controls following 4 hour drug exposure, with washing and regrowth for five days.
(§4) Compound WT NfsA_Ec Ratio

In data set [2] the test system is H1299 cells expressing E. coli NfsA. The data set can be described thus: Anti-proliferative IC50 assay, H1299 cells expressing E. coli NfsA. The following applies: for IC50: Escherichia coli, NCI-H1299, H1299 NfsA_Ec, 4 hour drug exposure, regrowth for five days; for WT:NfsA_Ec IC50 ratio: H1299 WT vs H1299 NfsA_Ec. Format: cell-based. As for the experimental part:
as §2, §3, §4

For data set [3], the system named is HCT116 cells expressing E. coli NfsA nitroreductase (NfsA_Ec). Kind of data set: Low cell density anti-proliferative (IC50) assay, HCT116 NfsA_Ec vs HCT116 WT. It counts as cell-based. As to conditions: aerobic, five days regrowth; for IC50: Escherichia coli, HCT-116, four hour drug exposure. As to the method:
(§5) Next, we evaluated the compounds for activity with the major nitroreductase from E. coli, NfsA (NfsA_Ec), or the human aldo-keto reductase AKR1C3, using a low cell density anti-proliferative (IC50) assay (Figure 2). The sensitivity of HCT116 wild-type (WT) cells and HCT116 cells over-expressing either NfsA_Ec or AKR1C3 was examined under aerobic conditions.
as §2
Figure 2 In vitro anti-proliferative activity of the novel lipophilic analogue series in HCT116 cells expressing AKR1C3 and E. coli NfsA (NfsA_Ec). IC50 values were determined as the concentration of drug required to inhibit cell growth by 50% of untreated controls following four hour drug exposure, with washing and regrowth for five days. Respective IC50 ratios (WT:AKR1C3 or WT:NfsA_Ec) are indicated above the bars for each compound. TEXT PRINTED IN THE PICTURE: PR-104A: HCT116 AKR1C3: 84; HCT116 NfsA_Ec: 2680 | 1: HCT116 AKR1C3: 1.8; HCT116 NfsA_Ec: 242 | 2: HCT116 AKR1C3: 1.6; HCT116 NfsA_Ec: 1431 | 3: HCT116 AKR1C3: 2.3; HCT116 NfsA_Ec: 913 | 4: HCT116 AKR1C3: 3.3; HCT116 NfsA_Ec: 594 | 5: HCT116 AKR1C3: 3.3; HCT116 NfsA_Ec: 152 | 6: HCT116 AKR1C3: 2.4; HCT116 NfsA_Ec: 741 | 7: HCT116 AKR1C3: 3.2; HCT116 NfsA_Ec: 174 | 8: HCT116 AKR1C3: 4.9; HCT116 NfsA_Ec: 81 | 9: HCT116 AKR1C3: 3.4; HCT116 NfsA_Ec: 147 DOUBTS OF THE COPYIST ABOUT THIS PICTURE: All values: the picture prints no measure or unit for the grey numbers above the blue and red bars. […] Each is given only with the cell line of the bar it stands over, as named in the picture's key.

Data set [4] concerns 97% HCT116 WT/3% HCT116 NfsA_Ec MCLs. The data set can be described thus: 3D multicellular layer (MCL) bystander assay, 97% HCT116 WT/3% HCT116 NfsA_Ec. Format: cell-based. As to conditions: 10 µM prodrug, five hours.
From the text: We then examined our compounds in a high cell density, 3D multi-cellular layer (MCL) assay in order to determine tissue penetration capacity of the active metabolite(s) and the potential for an efficient bystander effect. Mixed MCLs consisting of a small percentage HCT116 NfsA_Ec cells (3%) in the presence of HCT116 WT cells (97%) were used as a robust screen for efficient bystander cell kill. Here, active cytotoxic metabolites can diffuse out of the minority NfsA_Ec ‘prodrug-activating’ cell population into the WT ‘target’ population, causing death of cells that would not normally be sensitive to that concentration of prodrug.
as §1
Figure 3 Lipophilic structure–activity relationship for NfsA_Ec in three dimensions. (A) Plating efficiency in 100% HCT116 WT and 97% HCT116 WT/3% HCT116 NfsA_Ec MCLs exposed to 10 µM prodrug for five hours before dissociation and plating to determine clonogenic survival. (B) Correlation between Log cell kill and LogD7.4. R = 0.63, R^2 = 0.40. Log cell kill = Log CS (control)–Log CS (treated), where CS is the number of clonogenic survivors per MCL.

Data set [5] concerns HCT116 cells over-expressing AKR1C3. The data set can be described thus: Low cell density anti-proliferative (IC50) assay, HCT116 AKR1C3 vs HCT116 WT. Format: cell-based, human. The following applies: HCT116 WT vs HCT116 AKR1C3, aerobic, four hour exposure, five days regrowth. As to the method:
as §5, §2
Figure 2 In vitro anti-proliferative activity of the novel lipophilic analogue series in HCT116 cells expressing AKR1C3 and E. coli NfsA (NfsA_Ec). IC50 values were determined as the concentration of drug required to inhibit cell growth by 50% of untreated controls following four hour drug exposure, with washing and regrowth for five days. Respective IC50 ratios (WT:AKR1C3 or WT:NfsA_Ec) are indicated above the bars for each compound. […]

Data set [6] has as its target T1, purified His6-tagged NfsA_Ec (Escherichia coli, UniProt P17117).
T1 construct: His6; made in house
T1 sequence (P17117 1-240): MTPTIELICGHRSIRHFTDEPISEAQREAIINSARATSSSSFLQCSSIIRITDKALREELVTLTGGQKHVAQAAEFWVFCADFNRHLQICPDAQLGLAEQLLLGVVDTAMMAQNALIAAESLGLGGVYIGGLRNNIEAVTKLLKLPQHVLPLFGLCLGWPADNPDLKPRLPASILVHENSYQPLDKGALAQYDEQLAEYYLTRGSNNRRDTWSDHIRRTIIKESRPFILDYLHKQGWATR
Also on record: method as in earlier work. The following applies: apparent, 250 µM NADPH; cited from earlier work.

On the set-up of data set [7]: method as in PMID 34959631. As to conditions: mice, PR-104 at 388 µmol/kg (human equivalent dose); cited from earlier work.

`CN(CCO)C(=O)c1cc(N(CCBr)CCBr)c(S(C)(=O)=O)cc1[N+](=O)[O-]` [Compound 2, 5-(Bis(2-bromoethyl)amino)-N-(2-hydroxyethyl)-N-methyl-4-(methylsulfonyl)-2-nitrobenzamide] showed a melting point of 138 to 140 °C. In data set [1], this compound showed a logD at 90 min of 1.2. Further, the “Log cell kill (LCK)” value in the data set on 100% HCT116 AKR1C3 MCLs is given as not above 0.11. The same compound showed an IC50 in the data set on H1299 WT cells of 175000 ± 3500 nM. Moreover, in [2], the IC50 came out at 170 ± 30 nM and the “WT:NfsA_Ec IC50 ratio” value is reported as 1029 fold.

Take `CS(=O)(=O)c1cc([N+](=O)[O-])c(C(=O)NCCO)cc1N(CCBr)CCBr` [Compound 1, 5-(Bis(2-bromoethyl)amino)-N-(2-hydroxyethyl)-4-(methylsulfonyl)-2-nitrobenzamide]: the logD at 90 min in [1] is 1. The “Log cell kill (LCK)” value with 100% HCT116 AKR1C3 MCLs is not above 0.11. Also, the IC50 in the data set on H1299 WT cells stood at 166000 ± 26000 nM. For the same compound, in data set [2], the IC50 turned out to be 1180 ± 40 nM and the “WT:NfsA_Ec IC50 ratio” value worked out at 141 fold.

Turning to `CCCS(=O)(=O)c1cc([N+](=O)[O-])c(C(=O)N(C)CCO)cc1N(CCBr)CCBr` [Compound 9], the logD at 90 min in data set [1] was 2.1. This compound also came in with an IC50 in [3] of 1000 nM. For the same compound, in data set [4], the “Log cell kill (LCK)” value worked out at 1.6.

With `CS(=O)(=O)OCCN(CCBr)c1c(C(=O)NCCO)cc([N+](=O)[O-])cc1[N+](=O)[O-]` [PR-104A, reference compound], the values for the IC50 (in data set [3]; in the data set with H1299 WT cells; in [2]) were 30 nM, 131000 ± 9900 nM and 46 ± 3 nM, respectively. Moreover, the “WT:NfsA_Ec IC50 ratio” value in data set [3] (HCT116 WT vs HCT116 NfsA_Ec, four hour exposure) came to 2680 fold; in [2], 2848 fold. For the same compound, the “WT:AKR1C3 IC50 ratio” value in [5] came out at 84 fold. Also, the Michaelis constant (Km) in [6] was 100 ± 11 µM. In addition, the kcat in [6] is 12 ± 1.4 s⁻¹. For the same compound, the “Plasma AUCfree of PR-104A” value in [7] is recorded as 38 µM-h.

`CCCN(CCO)C(=O)c1cc(N(CCBr)CCBr)c(S(C)(=O)=O)cc1[N+](=O)[O-]` [Compound 4] registered a logD at 90 min in data set [1] of 2.1. For the same compound, the IC50 in data set [3] was 170 nM. In addition, the “Log cell kill (LCK)” value in data set [4] is 3.06.

The record behind these values is paper PMC8877822, “Interrogation of the Structure–Activity Relationship of a Lipophilic Nitroaromatic Prodrug Series Designed for Cancer Gene Therapy Applications” (Pharmaceuticals, 2022).
